PubChem BioAssay AID330 (DTP/NCI, 2004)
Several values for one entry are separate records, joined by “and”; a condition that tells them apart may be missing. Equal values may be shown once. Toxic doses and inconclusive results are not listed.

Tested on: P388 leukemia ip, CD2F1 mice, survival T/C
Test: NCI In Vivo Anticancer Drug Screen. Data for tumor model P388 Leukemia (intraperitoneal) in CD2F1 (CDF1) mice
Details: endpoint: median survival time, higher = longer survival
How it was run: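 Mice carrying the transplanted tumor received test compound or vehicle. Survival was recorded in each group, and the value is the treated-group measurement divided by that of the vehicle-treated control group.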

[1] = dose: 50.0 mg/kg/injection, schedule: Q01DX005 (ip), vehicle: saline with Tween-80
[2] = dose: 100.0 mg/kg/injection, schedule: Q01DX005 (ip), vehicle: saline with Tween-80
[3] = dose: 60.0 mg/kg/injection, schedule: Q01DX005 (ip), vehicle: Klucel (hydroxypropylcellulose) (HPC)
[4] = dose: 120.0 mg/kg/injection, schedule: Q01DX005 (ip), vehicle: Klucel (hydroxypropylcellulose) (HPC)
[5] = dose: 25.0 mg/kg/injection, schedule: Q01DX009 (ip), vehicle: saline with Tween-80
[6] = dose: 50.0 mg/kg/injection, schedule: Q01DX009 (ip), vehicle: saline with Tween-80
[7] = dose: 100.0 mg/kg/injection, schedule: Q04DX003 (ip), vehicle: saline with Tween-80

CCCCCCCCCCS(=O)CC(CO)NC(=O)/C=C/c1c(C)[nH]c(=O)[nH]c1=O (stereo not given)
T/C (dose: 0.78 mg/kg/injection, schedule: Q01DX009 (ip), vehicle: other): 107 % of control and 116 % of control | T/C (dose: 1.56 mg/kg/injection, schedule: Q01DX009 (ip), vehicle: other): 115 % of control | T/C (dose: 6.25 mg/kg/injection, schedule: Q01DX009 (ip), vehicle: other): 153 % of control

Cc1ccc(NC(=O)c2cc(C)ccc2N)cc1
T/C [1]: 91 % of control | T/C [2]: 91 % of control | T/C (dose: 200.0 mg/kg/injection, schedule: Q01DX005 (ip), vehicle: saline with Tween-80): 101 % of control

NS(=O)(=O)c1ccc(Nc2c3ccccc3nc3ncccc23)cc1
T/C (dose: 7.5 mg/kg/injection, schedule: Q01DX005 (ip), vehicle: saline with Tween-80): 92 % of control | T/C (dose: 15.0 mg/kg/injection, schedule: Q01DX005 (ip), vehicle: saline with Tween-80): 91 % of control | T/C (dose: 30.0 mg/kg/injection, schedule: Q01DX005 (ip), vehicle: saline with Tween-80): 92 % of control

CC1=CC(=C2C(=O)c3ccccc3C2=O)C=C(C)N1CCNCCO
T/C [3]: 99 % of control | T/C [4]: 90 % of control | T/C (dose: 240.0 mg/kg/injection, schedule: Q01DX005 (ip), vehicle: Klucel (hydroxypropylcellulose) (HPC)): 93 % of control

COC1/C=C/OC2(C)Oc3c(C)c(O)c4c(O)c(c(/C=N/N5C(C)CN(Cc6ccc([N+](=O)[O-])cc6)CC5C)c(O)c4c3C2=O)NC(=O)/C(C)=C\C=C\C(C)C(O)C(C)C(O)C(C)C(OC(C)=O)C1C (stereo not given)
T/C [5]: 100 % of control | T/C (dose: 25.0 mg/kg/injection, schedule: Q01DX009 (ip), vehicle: suspension in saline): 103 % of control | T/C [6]: 104 % of control and 119 % of control | T/C (dose: 50.0 mg/kg/injection, schedule: Q01DX009 (ip), vehicle: suspension in saline): 103 % of control | T/C (dose: 100.0 mg/kg/injection, schedule: Q01DX009 (ip), vehicle: saline with Tween-80): 119 % of control | T/C (dose: 100.0 mg/kg/injection, schedule: Q01DX009 (ip), vehicle: suspension in saline): 108 % of control | T/C (dose: 200.0 mg/kg/injection, schedule: Q01DX009 (ip), vehicle: suspension in saline): 119 % of control

CN(C)S(=O)(=O)c1cccc(N)c1
T/C (dose: 25.0 mg/kg/injection, schedule: Q04DX003 (ip), vehicle: saline with Tween-80): 93 % of control | T/C (dose: 50.0 mg/kg/injection, schedule: Q04DX003 (ip), vehicle: saline with Tween-80): 95 % of control | T/C [7]: 100 % of control | T/C (dose: 200.0 mg/kg/injection, schedule: Q04DX003 (ip), vehicle: saline with Tween-80): 94 % of control

COc1cc([C@@H]2c3cc4c(cc3[C@H](OC(C)=O)[C@H]3COC(=O)[C@@H]23)OCO4)cc(OC)c1OC
T/C [5]: 118 % of control | T/C (dose: 29.3 mg/kg/injection, schedule: Q04DX003 (ip), vehicle: saline with Tween-80): 88 % of control | T/C [6]: 150 % of control | T/C (dose: 66.0 mg/kg/injection, schedule: Q04DX003 (ip), vehicle: saline with Tween-80): 100 % of control | T/C [7]: 115 % of control

N#CC(O)Cc1ccccc1 (stereo not given)
T/C (dose: 2.5 mg/kg/injection, schedule: Q04DX003 (ip), vehicle: other): 110 % of control | T/C (dose: 5.0 mg/kg/injection, schedule: Q04DX003 (ip), vehicle: other): 105 % of control | T/C (dose: 10.0 mg/kg/injection, schedule: Q04DX003 (ip), vehicle: other): 105 % of control

CCOC(=O)c1c(C(=O)Nc2ccccc2)c(-c2ccccc2)n(NC(=O)c2cccc(Cl)c2)c1C
T/C [3]: 98 % of control | T/C [4]: 94 % of control

O=C1C=CC(=Nc2ccc(N(CCCl)CCCl)cc2)c2ccccc21
T/C (dose: 50.0 mg/kg/injection, schedule: Q01DX009 (ip), vehicle: Klucel (hydroxypropylcellulose) (HPC)): 171 % of control | T/C (dose: 100.0 mg/kg/injection, schedule: Q01DX009 (ip), vehicle: Klucel (hydroxypropylcellulose) (HPC)): 156 % of control and 181 % of control

O=S(=O)(O)c1ccc(OCCCCCCCCOc2ccc(S(=O)(=O)O)cc2)cc1
T/C (dose: 50.0 mg/kg/injection, schedule: Q01DX005 (ip), vehicle: saline): 112 % of control | T/C (dose: 100.0 mg/kg/injection, schedule: Q01DX005 (ip), vehicle: saline): 109 % of control | T/C (dose: 200.0 mg/kg/injection, schedule: Q01DX005 (ip), vehicle: saline): 100 % of control

CCOc1c(N=Nc2cccc(Cl)c2)c(C)nn1C(=S)S
T/C (dose: 15.0 mg/kg/injection, schedule: Q01DX005 (ip), vehicle: Klucel + Tween-80): 94 % of control | T/C (dose: 30.0 mg/kg/injection, schedule: Q01DX005 (ip), vehicle: Klucel + Tween-80): 90 % of control

O=c1c2ccccc2sc2cccc(NCCN3CCC(C4CCN(CCNc5cccc6sc7ccccc7c(=O)c56)CC4)CC3)c12
T/C (dose: 6.25 mg/kg/injection, schedule: Q01DX005 (ip), vehicle: saline with Tween-80): 105 % of control | T/C (dose: 12.5 mg/kg/injection, schedule: Q01DX005 (ip), vehicle: saline with Tween-80): 90 % of control | T/C [1]: 96 % of control | T/C [2]: 92 % of control

O=C1c2c(O)ccc(O)c2C(=O)c2c(NCCCCO)ccc(NCCCCO)c21
T/C (dose: 0.62 mg/kg/injection, schedule: Q01DX009 (ip), vehicle: acid diluted with saline): 103 % of control | T/C (dose: 1.25 mg/kg/injection, schedule: Q01DX009 (ip), vehicle: acid diluted with saline): 103 % of control | T/C (dose: 2.5 mg/kg/injection, schedule: Q01DX009 (ip), vehicle: acid diluted with saline): 103 % of control | T/C (dose: 5.0 mg/kg/injection, schedule: Q01DX009 (ip), vehicle: acid diluted with saline): 112 % of control | T/C (dose: 10.0 mg/kg/injection, schedule: Q01DX009 (ip), vehicle: acid diluted with saline): 102 % of control | T/C (dose: 20.0 mg/kg/injection, schedule: Q01DX009 (ip), vehicle: acid diluted with saline): 100 % of control | T/C (dose: 40.0 mg/kg/injection, schedule: Q01DX009 (ip), vehicle: acid diluted with saline): 98 % of control | T/C (dose: 80.0 mg/kg/injection, schedule: Q01DX009 (ip), vehicle: acid diluted with saline): 92 % of control | T/C (dose: 160.0 mg/kg/injection, schedule: Q01DX009 (ip), vehicle: acid diluted with saline): 86 % of control

CCCCCCCCCCCCCC1=NCCN1CCN
T/C (dose: 6.25 mg/kg/injection, schedule: Q01DX009 (ip), vehicle: saline with Tween-80): 108 % of control and 94 % of control | T/C (dose: 12.5 mg/kg/injection, schedule: Q01DX009 (ip), vehicle: saline with Tween-80): 105 % of control and 108 % of control and 109 % of control | T/C [5]: 107 % of control and 108 % of control and 111 % of control | T/C [6]: 99 % of control and 108 % of control | T/C (dose: 50.0 mg/kg/injection, schedule: Q01DX009 (ip), vehicle: saline): 96 % of control | T/C (dose: 100.0 mg/kg/injection, schedule: Q01DX009 (ip), vehicle: saline): 87 % of control

COC(=O)c1cc(Cl)ccc1OCC(O)CNc1ccc(Cl)cc1C(=O)c1ccccc1 (stereo not given)
T/C (dose: 60.0 mg/kg/injection, schedule: Q01DX005 (ip), vehicle: saline with Tween-80): 92 % of control | T/C (dose: 120.0 mg/kg/injection, schedule: Q01DX005 (ip), vehicle: saline with Tween-80): 100 % of control | T/C (dose: 240.0 mg/kg/injection, schedule: Q01DX005 (ip), vehicle: saline with Tween-80): 90 % of control

CC1(C)CNC(=S)O1
T/C (dose: 6.25 mg/kg/injection, schedule: Q01DX009 (ip), vehicle: Klucel (hydroxypropylcellulose) (HPC)): 107 % of control | T/C (dose: 12.5 mg/kg/injection, schedule: Q01DX009 (ip), vehicle: Klucel (hydroxypropylcellulose) (HPC)): 100 % of control | T/C (dose: 25.0 mg/kg/injection, schedule: Q01DX009 (ip), vehicle: Klucel (hydroxypropylcellulose) (HPC)): 88 % of control and 89 % of control

CCN(CC)CCNc1cc2c(c3sc4ccccc4c(=O)c13)CCCC2
T/C (dose: 7.8 mg/kg/injection, schedule: Q01DX005 (ip), vehicle: other): 113 % of control | T/C (dose: 15.6 mg/kg/injection, schedule: Q01DX005 (ip), vehicle: other): 110 % of control | T/C (dose: 31.3 mg/kg/injection, schedule: Q01DX005 (ip), vehicle: other): 113 % of control | T/C (dose: 62.5 mg/kg/injection, schedule: Q01DX005 (ip), vehicle: other): 101 % of control | T/C (dose: 125.0 mg/kg/injection, schedule: Q01DX005 (ip), vehicle: other): 104 % of control

Cc1ccc(S(=O)(=O)NC(=O)Nc2nccs2)cc1
T/C (dose: 12.5 mg/kg/injection, schedule: Q01DX009 (ip), vehicle: distilled water + Tween-80): 99 % of control | T/C (dose: 25.0 mg/kg/injection, schedule: Q01DX009 (ip), vehicle: distilled water + Tween-80): 92 % of control | T/C (dose: 50.0 mg/kg/injection, schedule: Q01DX009 (ip), vehicle: distilled water + Tween-80): 97 % of control | T/C (dose: 100.0 mg/kg/injection, schedule: Q01DX009 (ip), vehicle: distilled water + Tween-80): 106 % of control | T/C (dose: 200.0 mg/kg/injection, schedule: Q01DX009 (ip), vehicle: distilled water + Tween-80): 99 % of control
